Experimental data published in patent US20080269161A1, “Compositions and Methods Relating to Mitochondrial Hyperpolarization in Neurological Disease” (priority 2005, published 2008).
“Also recorded” adds a separate entry of the source. Counter-ions that a name gives are not always drawn.

Experiments:
[1] = test system: NO release by human primary monocytes; assay: Tat-induced nitric oxide release by primary monocytes (Griess reaction); assay type: cell-based; settings: co-treatment with Tat, 8 h; R-PIA 1 μM
Method: Human primary monocytes were treated with Tat in the presence or absence of the indicated adenosine receptor agonists for 8 h, and nitric oxide levels in the culture medium of the cells were then quantitated using the Griess reaction (Active Motif). Data represent mean+SEM of three experiments.
(§1) The effect of adenosine receptor activation on Tat-induced upregulation of iNOS expression and NO release was then determined. […] In contrast, incubation of cells with 1 μM R-PIA (an adenosine A1 receptor agonist) had no effect on Tat-induced iNOS expression or NO release (FIG. 11), implicating the A2A and A3 receptor subtypes in this anti-inflammatory effect. ZM241385 (an A2AR antagonist) or MRS 1220 (an A3R antagonist) could prevent the anti-inflammatory effects of CGS21680 or IB-MECA, respectively.

[2] = test system: iNOS expression in human primary monocytes; assay: Tat-induced iNOS expression in primary monocytes; assay type: cell-based; settings: co-treatment with Tat
Method: as §1

[3] = test system: Tat-stimulated TNF release in monocytes; assay: Tat-stimulated TNF release by primary monocytes (ELISA); assay type: cell-based, human; settings: Tat 100 nM, 4 h; CGS21680 1 μM; ATL313, ATL455 1-4 nM; hydrochloride
Method: Human primary monocytes were treated with Tat (100 nM) in the presence or absence of the A2AR agonist, CGS21680 (CGS; 1 μM) or the A2AR antagonist, ZM241385 (100 nM) for 4 h. TNF levels in culture supernatants were then quantitated by ELISA. Data represent mean+SEM of three replicates, from a single representative experiment
(§2) Primary monocytes were seeded in separate triplicate wells, and exposed independently to LPS (100 ng/ml), vehicle (NT) or Tat (100 nM) in the presence or absence of the A2AR agonist, CGS21680 (1 μM). After 4 h, cells were harvested. (A) TNF was measured in cell supernatants by ELISA Mean data values (±S.D.) are shown for the triplicate wells. (B) The corresponding cells from each well in panel A were lysed and subjected to qRTPCR analysis. Each cDNA sample was analyzed in quadruplicate. Assay results are presented as fold induction of gene expression, compared to untreated cells, after normalization to levels of GAPDH. Data represent mean±SD for each individual experimental replicate/well.
Human primary monocytes were treated with Tat (100 nM) in the presence or absence of the A2AR agonist, ATL313 (1-4 nM) or the A2AR antagonist, ATL455 (1-4 nM) for 4 h. TNF levels in culture supernatants were then quantitated by ELISA. […]
Human primary monocytes were treated with Tat (100 nM) in the presence or absence of the A2AR agonist, ATL313 (at the indicated doses) for 4 h. TNF levels in culture supernatants were then quantitated by ELISA. […]
(6) Primary monocytes. […] Results are compared for both populations, as well as purity (as assessed by immunophenotyping using CD14, CD68 and MHC class II).
The effect of an A2AR agonist on TNF release by primary human monocytes was also determined. Monocytes were stimulated with HIV-1 Tat, in the presence or absence of the A2AR agonist CGS21680 or the A2AR antagonist ZM251385 and TNF release was then measured in cell culture supernatants using an ELISA assay.
Quantitative real-time PCR analysis was used to measure TNF message levels in Tat-treated monocytes. […]

[4] = test system: TNF and IL1 mRNA in primary human monocytes; assay: qRTPCR of inflammatory gene expression in Tat-exposed monocytes; assay type: cell-based; settings: Tat 100 nM, CGS21680 1 μM, 4 h
Method: as §2
Quantitative real-time PCR analysis was used to measure TNF message levels in Tat-treated monocytes. Primary human monocytes were prepared using CD14^+ immunomagnetic selection, and then exposed to LPS or to HIV-1 Tat for 4 hours, in the presence or absence of the A2AR agonist CGS21680. Culture supernatants were tested for TNF levels by ELISA assay (FIG. 13A), and RNA was extracted from cell pellets for quantitative reverse-transcription PCR (qRTPCR) analysis (FIG. 13B).

[5] = test system: rat cerebellar granule neurons (CGNs); assay: Tat-induced apoptosis of cerebellar granule neurons (TUNEL); assay type: cell-based; settings: Tat 500 nM, 48 h
Method: (§3) CGNs were exposed to HIV-1 Tat (Tat, 500 nM), or vehicle alone (NT), in the presence or absence of the A2A antagonist, ZM241385. After 48 h, cultures were analyzed for the percentage of apoptotic cells using the TUNEL assay. Data represent mean±SEM for one experiment that was performed in triplicate; data are representative of two independent experiments.
as §3, with “(No Tat),” for “(NT),”, “A2AR antagonists, ATL455 and ZM241385, or the A2AR agonists ATL313 and CGS21680.” for “A2A antagonist, ZM241385.”
(1) Primary rat cerebellar granule neurons (CGNs). CGNs represent a highly homogenous population of primary neurons which are susceptible to Tat and PAF-mediated cell killing and have been used in many of previous studies. CGN cells are isolated according to published procedures [Maggirwar, S. B., et al. 1999. J Neurochem 73:578-86] [Tong, N., et al. 2001. Eur J Neurosci 13:1913-22].
78(4): p. […] 22(6): p. 1102-6].
Primary rat cerebellar granule neurons (CGNs) were exposed to a neurotoxic concentration of HIV-1 Tat, in the presence or absence of an A2AR antagonist (ZM241385). […] It is important to note that CGNs express adenosine A2A receptors [Vacas, J., et al. 2003. Brain Res 992:272-280].
Primary cultures of rat cerebellar granule neurons (CGNs) were exposed to HIV-Tat ([…]) alone or together with increasing doses of the A2AR antagonist ATL-455 or A2A agonists ATL313 or CGS21680. Cells are treated with the test compounds for defined time intervals of up to 48 hours (1, 4, 8, 24, and 48 hours).

[6] = test system: HIV-1 isolates resistant to other protease inhibitors; settings: read-out: ED50 dose for inhibiting viral replication; cited from earlier work
rat cortical neurons = assay type: cell-based
Method: Measuring production of intracellular ROS: Generation of ROS in response to Tat and PAF is assessed with the oxidizable dye indicator 5-(and-6)-chloromethyl-2′, 7′-dichlorodihydrofluorescein diacetate, acetyl ester (CM—H2DCFDA, abbreviated as “DCF”) (Molecular Probes, Eugene, Oreg.). Upon entering the cell by passive diffusion, the acetate groups are cleaved by intracellular esterases, and the thiol-reactive chloromethyl group binds to intracellular thiols, rendering the CM—H2DCF product trapped within the cell. […] [manufacturer's data] leaves the final fluorescent product CM-DCF, which is then imaged (excitation: 485, emission: 538) and quantitated in the same fashion as TMRM (above) as an indicator of relative levels of ROS in the culture.

rodent cortical cultures = assay: FM1-43 vesicular uptake in cortical neuronal cultures; assay type: cell-based, rat; settings: all doses of Tat
Method: (C) Moreover, activity dependent FM1-43 release by KC1 depolarization preferentially reduces the punctate vesicular labeling versus background signal. (D) In ≦14 and ≧14 day old primary neurons, 2.5 μg/ml Tat and 4.25 μg/ml Tat induces an increase in spontaneous activity dependent vesicular uptake, an effect that is both dose and culture age dependent.
Cortical neuronal cultures were treated with Tat or cPAF for varying periods of time as an in vitro model of pre-synaptic nerve terminal function, using the lipophilic, fluorescent styryl dye N-(3-triethylammoniumpropyl)-4-(4-(dibutylamino)styryl) pyridinium dibromide (FM1-43), which binds to synaptic vesicle membranes and is taken up into nerve terminals during normal activity (i.e., synaptic vesicle recycling). Fluorescent signal can be quantified to number of neurons, and after chemical depolarization with high concentrations of KC1, fluorescent signal is abolished, giving an index of nerve terminal activity in real-time. […] 68(7): p. 4628-35]. […]
FM1-43 uptake assay: Total spontaneous activity dependent vesicular uptake was assessed using the lipophilic styryl dye N-(3-triethylammoniumpropyl)-4-(4-(dibutylamino)styryl) pyridinium dibromide (FM1-43). […] Upon subsequent exocytosis, the vesicle fuses with the membrane, releasing its contents, and the FM1-43 dissociates back into the extracellular solution and loses its fluorescence. […]

CCNC(=O)[C@H]1O[C@@H](n2cnc3c(N)nc(NCCc4ccc(CCC(=O)O)cc4)nc32)[C@H](O)[C@@H]1O [CGS21680, 4-[2-[[6-Amino-9-(N-ethyl-b-D-ribofuranuronamidosyl)-9H-purin-2yl]amino]ethyl]benzenepropanoic acid hydrochloride]
effect on Tat-induced NO secretion [1]: complete abrogation | inhibition of Tat-induced iNOS expression [2]: roughly 50% | effect on Tat-induced monocyte activation (TNF release) [3]: abrogated; also recorded: strongly suppressed; also recorded: opposed | effect on IL1 mRNA levels [4]: little effect | effect on TNF transcription [4]: strongly suppressed | effect on Tat-induced neuronal apoptosis [5]: did not result in an increase in cell death

COC(=O)N[C@H](C(=O)N[C@@H](Cc1ccccc1)[C@@H](O)CN(Cc1ccc(-c2ccccn2)cc1)NC(=O)[C@@H](NC(=O)OC)C(C)(C)C)C(C)(C)C [Atazanvir, Atazanavir]
EC50 [6]: 2 to 8 nM

OO [H202, hydrogen peroxide]
increase in ROS production (rat cortical neurons): 90%

C[C@H](CCC(=O)NCCS(=O)(=O)O)[C@H]1CC[C@H]2[C@@H]3[C@@H](O)C[C@@H]4C[C@H](O)CC[C@]4(C)[C@H]3CC[C@]12C [TUDCA, tauroursodeoxycholic acid]
effect on Tat-induced increase in FM1-43 uptake (rodent cortical cultures): completely blocked; also recorded: completely eliminated
